Like-named read-outs stand apart in the source and are kept apart here.
Assays:
[1] = Samuni et al. 1997; cited from earlier work
[2] = tested on: MCF-7 (human breast adenocarcinoma); experiment: Cytotoxicity assay (methylene blue); nitroxides alone or doxorubicin plus tempamine; format: cell-based; conditions: for IC50: Homo sapiens
Method: (§1) As described in Example 1, the cytotoxicity of tempamine was determined on three cell lines, MCF-7 (human breast adenocarcinoma), M-109S (doxorubicin-sensitive human breast carcinoma), and M-109R (doxorubicin-resistant human breast carcinoma). The effect of free tempamine on cell proliferation was determined by a methylene blue assay as described in Example 1B.
FIG. 4 is a plot comparing the percent survival of MCF-7 human breast carcinoma cells at various doses of tempamine (closed circles) and tempol (open circles) in vitro. The cells were analyzed after 72 hours of exposure to the nitroxides. Tempamine and tempol cell growth inhibitory activities were of similar magnitude.
(§2) In yet another aspect, the invention contemplates administration of tempamine in combination with chemotherapeutic agent. […] Doxorubicin was chosen as a model chemotherpeutic agent. The enhancement of doxorubicin cytotoxicity by tempamine was tested on three cell lines, as described in Example 1A. A cytotoxicity assay as described in Example 1B was used. Two of the cell lines, MCF-7 and M-109S, were doxorubicin-sensitive lines and one cell line, M-109R, was doxorubicin resistant. MCF-7 cells are more sensitive to tempamine (100 μM caused 75% growth inhibition), but are less sensitive to doxorubicin, than are M-109S cells.
(§3) MCF-7 (human breast adenocarcinoma), M-109S (doxorubicin-sensitive human breast carcinoma), and M-109R (doxorubicin-resistant human breast carcinoma) were maintained in RPMI medium (Biological Industries, Beit HaEmek, Israel) supplemented with 10% fetal calf serum (FCS). The cell lines were maintained under standard culture conditions at 37° C. in a humidified 5% CO2 atmosphere.
(§4) The effect of tempamine on cell proliferation was determined by the methylene blue assay (Horowitz, A. T., et al., Biochim BiophysActa. 1109:203, (1992)). Briefly, cells were seeded onto 96-well plates (MCF cells at a density of 6×10^3 cells per well, and M-109S and M-109R at a density of 1.5×10^3 cells per well) and allowed to grow for 24 hours prior to treatment with different concentrations of tempamine. After the addition of tempamine (5×10^−5 to 4×10^−4), the cells were incubated in RPMI +10% FCS for four days without change of medium. Then the cells were fixed with 2.5% glutaraldehyde, stained with methylene blue and assayed spectrophotometrically.

[3] = tested on: M-109S (doxorubicin-sensitive human breast carcinoma); experiment: Cytotoxicity assay (methylene blue); tempamine alone or doxorubicin plus tempamine; format: cell-based; conditions: M-109S; for IC50: Homo sapiens
Method: as §1, §2, §3, §4

Question: For `CC1(C)CCCC(C)(C)N1[O]` [TEMPO], which “affinity to n-octanol versus aqueous phase” value [1] is on record?
Answer: much higher affinity to n-octanol than to the aqueous phase

Question: Which IC50 ([2]; MCF7, read-out: IC50 of Doxorubicin (nM) in the presence of 200 μM tempamine, MCF-7) does the source give for `COc1cccc2c1C(=O)c1c(O)c3c(c(O)c1C2=O)C[C@@](O)(C(=O)CO)C[C@@H]3O[C@H]1C[C@H](N)[C@H](O)[C@H](C)O1` [doxorubicin] here?
Answer: 55 ± 4.1 nM

Question: What about the IC50 ([2]; MCF7, MCF-7, read-out: IC50 of Doxorubicin (nM) in the presence of 0 μM tempamine) of the same compound?
Answer: 487 ± 32 nM

Question: What about the IC50 ([2]; MCF7, MCF-7, read-out: IC50 of Doxorubicin (nM) in the presence of 50 μM tempamine) of the same compound?
Answer: 475 ± 38 nM

Question: What about the IC50 ([2]; MCF7, MCF-7, read-out: IC50 of Doxorubicin (nM) in the presence of 100 μM tempamine) of the same compound?
Answer: 67 ± 5.8 nM

Question: What about the “change of IC50 value of doxorubicin” value ([2]; MCF-7, in the presence of 100 μM TMN) of the same compound?
Answer: decreased by one order of magnitude

Question: What about the IC50 ([3]; read-out: IC50 of Doxorubicin (nM) in the presence of 200 μM tempamine) of the same compound?
Answer: 18 ± 1.1 nM

Question: What about the IC50 ([3]; read-out: IC50 of Doxorubicin (nM) in the presence of 0 μM tempamine) of the same compound?
Answer: 60 ± 4 nM

Question: And the IC50 ([3]; read-out: IC50 of Doxorubicin (nM) in the presence of 100 μM tempamine)?
Answer: 27 ± 1.7 nM

Question: What about the “observed IC50 of doxorubicin decreased to” value ([3]; addition of 100-200 μM tempamine) of the same compound?
Answer: 50%

Question: Which IC50 ([2]; MCF7, 72 h, read-out: IC50 (cell growth inhibition)) does the source give for `CC1(C)CC(O)CC(C)(C)N1[O]` [tempol] here?
Answer: 320000 nM

Question: What about the “affinity to n-octanol versus aqueous phase” value [1] of the same compound?
Answer: much higher affinity to n-octanol than to the aqueous phase
